In US12077503B2, “Substituted cyclic amides and their use as herbicides” (FMC CORPORATION, priority 2015, dated 2024):

Key:
Format in all cases: in vivo
[1] = test system: ryegrass, Italian (Italian ryegrass, Lolium multiflorum); test: Test A postemergence
Outline: (§1)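 Treatment is preemergence as a directed soil spray after planting, or postemergence at the one- to two-leaf stage, with test chemical in a non-phytotoxic solvent mixture plus surfactant. Plants stay in the greenhouse about 10 d before visual injury scoring on a 0 to 100 scale versus untreated controls.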

[2] = test system: Galium (catchweed bedstraw, Galium aparine); test: Test A postemergence
Outline: as §1

[3] = test system: Kochia (Kochia scoparia); test: Test A postemergence
Outline: as §1

[4] = test system: ragweed (common ragweed, Ambrosia elatior); test: Test A postemergence
Outline: as §1

[5] = test system: corn (Zea mays); test: Test A postemergence
Outline: as §1

[6] = test system: pigweed (Amaranthus retroflexus); test: Test A postemergence
Outline: as §1

[7] = test system: barnyardgrass (Echinochloa crus-galli); test: Test A postemergence
Outline: as §1

[8] = test system: wheat (Triticum aestivum); test: Test A postemergence
Outline: as §1

[9] = test system: blackgrass (Alopecurus myosuroides); test: Test A postemergence
Outline: as §1

[10] = test system: giant foxtail (Setaria faberii); test: Test A postemergence
Outline: as §1

[11] = test system: ryegrass, Italian (Italian ryegrass, Lolium multiflorum); test: Test A preemergence
Outline: as §1

[12] = test system: Kochia (Kochia scoparia); test: Test A preemergence
Outline: as §1

[13] = test system: ragweed (common ragweed, Ambrosia elatior); test: Test A preemergence
Outline: as §1

[14] = test system: pigweed (Amaranthus retroflexus); test: Test A preemergence
[15] = test system: barnyardgrass (Echinochloa crus-galli); test: Test A preemergence
Outline: as §1

[16] = test system: giant foxtail (Setaria faberii); test: Test A preemergence
Outline: as §1

[17] = test system: sedge, umbrella (small-flower umbrella sedge, Cyperus difformis); test: Test B flooded paddy test; conditions: Flood, 250 g ai/ha
Outline: (§2)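 Percent control, visually estimated after 13–15 d in the greenhouse on a 0–100 basis, compares treated pots with untreated ones; compound was put into paddy water 3 cm above the soil when plants had two leaves.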

[18] = test system: rice (Oryra sativa); test: Test B flooded paddy test; conditions: Flood, 250 g ai/ha
Outline: as §2

[19] = test system: barnyardgrass (Echinochloa crus-galli); test: Test B flooded paddy test; conditions: Flood, 250 g ai/ha
Outline: as §2

[20] = test system: ducksalad (Heteranthera limosa); test: Test B flooded paddy test; conditions: Flood, 250 g ai/ha
Outline: as §2

[21] = 125 g ai/ha, postemergence, visual injury rating on 0 to 100 scale (0 no effect, 100 complete control), approx. 10 d
[22] = Postemergence, 500 g ai/ha, 0 to 100 scale where 0 is no effect and 100 is complete control
[23] = 125 g ai/ha, Preemergence, visual injury after approximately 10 d, 0 to 100 scale where 0 is no effect and 100 is complete control
[24] = Preemergence, 500 g ai/ha, visual injury approx. 10 d
[25] = 0 to 100 scale where 0 is no effect and 100 is complete control, 13 to 15 d

## CN1CC(c2cccc(OC(F)F)c2)C(C(=O)Nc2ccccc2S(C)(=O)=O)C1=O (centres unmarked) [Compound 523]
[1]; [21]
  Ryegrass, Italian plant response rating: 30
[1]; [22]
  Plant response rating, Ryegrass, Italian: 70
[2]; [21]
  Galium plant response rating: 50
[2]; [22]
  Plant response rating, Galium: 60
[3]; [21]
  Kochia plant response rating: 20
[3]; [22]
  Plant response rating, Kochia: 50
[4]; [21]
  Ragweed plant response rating: 50
[4]; [22]
  Plant response rating, Ragweed: 50
[5]; [21]
  Corn plant response rating: 20
[5]; [22]
  Plant response rating, Corn: 80
[6]; [21]
  Pigweed plant response rating: 30
[6]; [22]
  Plant response rating, Pigweed: 60
[7]; [21]
  Barnyardgrass plant response rating: 90
[7]; [22]
  Plant response rating, Barnyardgrass: 90
[8]; [21]
  Wheat plant response rating: 0
[8]; [22]
  Plant response rating, Wheat: 70
[9]; [21]
  Blackgrass plant response rating: 50
[9]; [22]
  Plant response rating, Blackgrass: 70
[10]; [21]
  Foxtail, Giant plant response rating: 80
[10]; [22]
  Plant response rating, Foxtail, Giant: 90
[11]; [23]
  Plant response rating, Ryegrass, Italian: 40
[11]; [24]
  Ryegrass, Italian plant response rating (0 to 100 scale, 0 is no effect, 100 is complete control): 90
[12]; [23]
  Plant response rating, Kochia: 0
[12]; [24]
  Kochia plant response rating (0 to 100 scale, 0 is no effect, 100 is complete control): 80
[13]; [23]
  Plant response rating, Ragweed: 60
[13]; [24]
  Ragweed plant response rating (0 to 100 scale, 0 is no effect, 100 is complete control): 80
[14]; [23]
  Plant response rating, Pigweed: 80
[14]; [24]
  Pigweed plant response rating (0 to 100 scale, 0 is no effect, 100 is complete control): 90
[15]; [23]
  Plant response rating, Barnyardgrass: 90
[15]; [24]
  Barnyardgrass plant response rating (0 to 100 scale, 0 is no effect, 100 is complete control): 90
[16]; [23]
  Plant response rating, Foxtail, Giant: 90
[16]; [24]
  Foxtail, Giant plant response rating (0 to 100 scale, 0 is no effect, 100 is complete control): 90
[17]; [25]
  Plant response rating, Sedge, Umbrella: 0
[18]; [25]
  Plant response rating, Rice: 0
[19]; [25]
  Plant response rating, Barnyardgrass: 50
[20]; [25]
  Plant response rating, Ducksalad: 50

## CC(C)Oc1ccc([C@H]2CN(C)C(=O)[C@@H]2C(=O)Nc2ccccc2F)cc1 [Compound 952]
[1]; Lolium multiflorum, post-emergence, 240 h, 125 g ai/ha, Postemergence, visual injury after approximately 10 d, 0 to 100 scale where 0 is no effect and 100 is complete control, read-out: Plant response rating, Ryegrass, Italian
  pest or weed control at 125 g/ha: 0%
[2]; Galium, post-emergence, 240 h, 125 g ai/ha, Postemergence, visual injury after approximately 10 d, 0 to 100 scale where 0 is no effect and 100 is complete control, read-out: Plant response rating, Galium
  pest or weed control at 125 g/ha: 0%
[3]; Bassia scoparia, post-emergence, 240 h, 125 g ai/ha, Postemergence, visual injury after approximately 10 d, 0 to 100 scale where 0 is no effect and 100 is complete control, read-out: Plant response rating, Kochia
  pest or weed control at 125 g/ha: 0%
[4]; Ambrosia artemisiifolia, post-emergence, 240 h, 125 g ai/ha, Postemergence, visual injury after approximately 10 d, 0 to 100 scale where 0 is no effect and 100 is complete control, read-out: Plant response rating, Ragweed
  pest or weed control at 125 g/ha: 0%
[5]; Zea mays, post-emergence, 240 h, 125 g ai/ha, Postemergence, visual injury after approximately 10 d, 0 to 100 scale where 0 is no effect and 100 is complete control
  Corn plant response rating (crop injury, 0 = no effect, 100 = complete kill) at 125 g/ha: 0%
[6]; Amaranthus retroflexus, post-emergence, 240 h, 125 g ai/ha, Postemergence, visual injury after approximately 10 d, 0 to 100 scale where 0 is no effect and 100 is complete control, read-out: Plant response rating, Pigweed
  pest or weed control at 125 g/ha: 0%
[7]; Echinochloa crus-galli, post-emergence, 240 h, 125 g ai/ha, Postemergence, visual injury after approximately 10 d, 0 to 100 scale where 0 is no effect and 100 is complete control, read-out: Plant response rating, Barnyardgrass
  pest or weed control at 125 g/ha: 60%
[8]; Triticum aestivum, post-emergence, 240 h, 125 g ai/ha, Postemergence, visual injury after approximately 10 d, 0 to 100 scale where 0 is no effect and 100 is complete control, read-out: Plant response rating, Wheat
  plant injury at 125 g/ha: 0%
[9]; Alopecurus myosuroides, post-emergence, 240 h, 125 g ai/ha, Postemergence, visual injury after approximately 10 d, 0 to 100 scale where 0 is no effect and 100 is complete control, read-out: Plant response rating, Blackgrass
  pest or weed control at 125 g/ha: 0%
[10]; Setaria faberi, post-emergence, 240 h, 125 g ai/ha, Postemergence, visual injury after approximately 10 d, 0 to 100 scale where 0 is no effect and 100 is complete control, read-out: Plant response rating, Foxtail, Giant
  pest or weed control at 125 g/ha: 50%
[11]; Lolium multiflorum, pre-emergence, 240 h, 125 g ai/ha, Preemergence, visual injury rating after approximately 10 d, read-out: Ryegrass, Italian plant response rating (0 to 100 scale, 0 is no effect, 100 is complete control)
  pest or weed control at 125 g/ha: 0%
[11]; Lolium multiflorum, pre-emergence, 240 h, 500 g ai/ha, preemergence, visual injury rating about 10 d after treatment, 0 to 100 scale (0 no effect, 100 complete control), read-out: Ryegrass, Italian plant response rating
  pest or weed control at 500 g/ha: 0%
[12]; Bassia scoparia, pre-emergence, 240 h, 125 g ai/ha, Preemergence, visual injury rating after approximately 10 d, read-out: Kochia plant response rating (0 to 100 scale, 0 is no effect, 100 is complete control)
  pest or weed control at 125 g/ha: 30%
[12]; Bassia scoparia, pre-emergence, 240 h, 500 g ai/ha, preemergence, visual injury rating about 10 d after treatment, 0 to 100 scale (0 no effect, 100 complete control), read-out: Kochia plant response rating
  pest or weed control at 500 g/ha: 30%
[13]; Ambrosia artemisiifolia, pre-emergence, 240 h, 125 g ai/ha, Preemergence, visual injury rating after approximately 10 d, read-out: Ragweed plant response rating (0 to 100 scale, 0 is no effect, 100 is complete control)
  pest or weed control at 125 g/ha: 0%
[13]; Ambrosia artemisiifolia, pre-emergence, 240 h, 500 g ai/ha, preemergence, visual injury rating about 10 d after treatment, 0 to 100 scale (0 no effect, 100 complete control), read-out: Ragweed plant response rating
  pest or weed control at 500 g/ha: 0%
[14]; Amaranthus retroflexus, pre-emergence, 240 h, 125 g ai/ha, Preemergence, visual injury rating after approximately 10 d, read-out: Pigweed plant response rating (0 to 100 scale, 0 is no effect, 100 is complete control)
  pest or weed control at 125 g/ha: 0%
[14]; Amaranthus retroflexus, pre-emergence, 240 h, 500 g ai/ha, preemergence, visual injury rating about 10 d after treatment, 0 to 100 scale (0 no effect, 100 complete control), read-out: Pigweed plant response rating
  pest or weed control at 500 g/ha: 0%
[15]; Echinochloa crus-galli, pre-emergence, 240 h, 125 g ai/ha, Preemergence, visual injury rating after approximately 10 d, read-out: Barnyardgrass plant response rating (0 to 100 scale, 0 is no effect, 100 is complete control)
  pest or weed control at 125 g/ha: 50%
[15]; Echinochloa crus-galli, pre-emergence, 240 h, 500 g ai/ha, preemergence, visual injury rating about 10 d after treatment, 0 to 100 scale (0 no effect, 100 complete control), read-out: Barnyardgrass plant response rating
  pest or weed control at 500 g/ha: 90%
[16]; Setaria faberi, pre-emergence, 240 h, 125 g ai/ha, Preemergence, visual injury rating after approximately 10 d, read-out: Foxtail, Giant plant response rating (0 to 100 scale, 0 is no effect, 100 is complete control)
  pest or weed control at 125 g/ha: 80%
[16]; Setaria faberi, pre-emergence, 240 h, 500 g ai/ha, preemergence, visual injury rating about 10 d after treatment, 0 to 100 scale (0 no effect, 100 complete control), read-out: Foxtail, Giant plant response rating
  pest or weed control at 500 g/ha: 90%
[17]; Cyperus difformis, scale of 0 to 100 where 0 is no effect and 100 is complete control, read-out: Sedge, Umbrella plant response rating
  pest or weed control at 250 g/ha: 0%
[18]; Oryza sativa, scale of 0 to 100 where 0 is no effect and 100 is complete control, read-out: Rice plant response rating
  pest or weed control at 250 g/ha: 0%
[19]; Echinochloa crus-galli, scale of 0 to 100 where 0 is no effect and 100 is complete control, read-out: Barnyardgrass plant response rating
  pest or weed control at 250 g/ha: 0%
[20]; Heteranthera limosa, scale of 0 to 100 where 0 is no effect and 100 is complete control, read-out: Ducksalad plant response rating
  pest or weed control at 250 g/ha: 40%
